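All cell lines were grown in 96-well plates and treated with compound for 48 hours. GI50: concentration for 50% inhibition of growth.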 Activity calls are given as the source filed them. No stated cut-off is given here; in the data, active = GI50 up to about 1.1 µM and inactive = higher.
Tests used:
Experiment in all cases: NCI tumour cell line growth inhibition, 48 h
MCF7 = tested on: MCF7
K562 = tested on: K562
MDA-N = tested on: MDA-N
NCI-H226 = tested on: NCI-H226
SR = tested on: SR
HCC 2998 = tested on: HCC 2998
NCI-H522 = tested on: NCI-H522
UACC-62 = tested on: UACC-62
BT-549 = tested on: BT-549
U-251 = tested on: U-251
HCT-116 = tested on: HCT-116
OVCAR-8 = tested on: OVCAR-8
SN12C = tested on: SN12C
RXF 393 = tested on: RXF 393
TK-10 = tested on: TK-10
HOP-62 = tested on: HOP-62
KM12 = tested on: KM12
SNB-19 = tested on: SNB-19
CCRF-CEM = tested on: CCRF-CEM
RPMI-8226 = tested on: RPMI-8226
OVCAR-5 = tested on: OVCAR-5
HCT-15 = tested on: HCT-15
HOP-92 = tested on: HOP-92
SK-MEL-28 = tested on: SK-MEL-28
IGROV-1 = tested on: IGROV-1
PC-3 = tested on: PC-3
SW-620 = tested on: SW-620
DU-145 = tested on: DU-145
NCI-H460 = tested on: NCI-H460
UACC-257 = tested on: UACC-257
MDA-MB-435 = tested on: MDA-MB-435
M14 = tested on: M14
SF-268 = tested on: SF-268
HT-29 = tested on: HT-29
MOLT-4 = tested on: MOLT-4
NCI/ADR-RES = tested on: NCI/ADR-RES
ACHN = tested on: ACHN
OVCAR-3 = tested on: OVCAR-3
SK-OV-3 = tested on: SK-OV-3
COLO 205 = tested on: COLO 205
LOX IMVI = tested on: LOX IMVI
SF-539 = tested on: SF-539
SK-MEL-2 = tested on: SK-MEL-2
786-0 = tested on: 786-0
A498 = tested on: A498
Malme-3M = tested on: Malme-3M
HL-60 = tested on: HL-60
SF-295 = tested on: SF-295
NCI-H23 = tested on: NCI-H23
OVCAR-4 = tested on: OVCAR-4
Hs-578T = tested on: Hs-578T
MDA-MB-231 = tested on: MDA-MB-231
T47D = tested on: T47D
SNB-75 = tested on: SNB-75
A549 = tested on: A549
SK-MEL-5 = tested on: SK-MEL-5
EKVX = tested on: EKVX
CAKI-1 = tested on: CAKI-1
UO-31 = tested on: UO-31
DMS-114 = tested on: DMS-114
DMS-273 = tested on: DMS-273
LXFL 529 = tested on: LXFL 529
DLD-1 = tested on: DLD-1
KM-20L2 = tested on: KM-20L2
M19-MEL = tested on: M19-MEL
XF498 = tested on: XF498

With `CN(C)/C=C/c1c2c(nc3ccccc13)C(=O)c1cccnc1C2=O` the GI50 (MCF7) was 262 nM (active), the GI50 (K562) was 446 nM (active) and the GI50 (MDA-N) was 540 nM (active). For the same molecule, the GI50 (NCI-H226) was 292 nM (active), the GI50 (SR) was 221 nM (active) and the GI50 (HCC 2998) was 1280 nM (inactive). For the same molecule, the GI50 (NCI-H522) was 315 nM (active), the GI50 (UACC-62) was 541 nM (active) and the GI50 (BT-549) was 402 nM (active). The GI50 (U-251) was 353 nM (active), the GI50 (HCT-116) was 197 nM (active) and the GI50 (OVCAR-8) was 407 nM (active). The GI50 (SN12C) was 532 nM (active), the GI50 (RXF 393) was 705 nM (active) and the GI50 (TK-10) was 1400 nM (inactive). For the same molecule, the GI50 (HOP-62) was 57.9 nM (active), the GI50 (KM12) was 350 nM (active) and the GI50 (SNB-19) was 562 nM (active). For the same molecule, the GI50 (CCRF-CEM) was 1840 nM (inactive), the GI50 (RPMI-8226) was 1890 nM (inactive) and the GI50 (OVCAR-5) was 1450 nM (inactive). For the same molecule, the GI50 (HCT-15) was 90.8 nM, the GI50 (HOP-92) was 2040 nM (inactive) and the GI50 (SK-MEL-28) was 552 nM (active). For the same molecule, the GI50 (IGROV-1) was 1420 nM (inactive), the GI50 (PC-3) was 542 nM (active) and the GI50 (SW-620) was 244 nM (active). For the same molecule, the GI50 (DU-145) was 416 nM (active), the GI50 (NCI-H460) was 109 nM (active) and the GI50 (UACC-257) was 668 nM (active). For the same molecule, the GI50 (MDA-MB-435) was 548 nM (active), the GI50 (M14) was 218 nM (active) and the GI50 (SF-268) was 410 nM (active). The GI50 (HT-29) was 2200 nM (inactive), the GI50 (MOLT-4) was 2010 nM (inactive) and the GI50 (NCI/ADR-RES) was 321 nM (active). For the same molecule, the GI50 (ACHN) was 217 nM (active), the GI50 (OVCAR-3) was 56.8 nM (active) and the GI50 (SK-OV-3) was 792 nM (active). The GI50 (COLO 205) was 2070 nM (inactive), the GI50 (LOX IMVI) was < 10 nM (active) and the GI50 (SF-539) was 300 nM (active). The GI50 (SK-MEL-2) was 1620 nM (inactive), the GI50 (786-0) was 226 nM (active) and the GI50 (A498) was 865 nM (active). For the same molecule, the GI50 (Malme-3M) was 697 nM (active), the GI50 (HL-60) was 299 nM (active) and the GI50 (SF-295) was 570 nM (active). For the same molecule, the GI50 (NCI-H23) was 592 nM (active), the GI50 (OVCAR-4) was 351 nM (active) and the GI50 (Hs-578T) was 1580 nM (inactive). For the same molecule, the GI50 (MDA-MB-231) was 867 nM (active), the GI50 (T47D) was 3970 nM (inactive) and the GI50 (SNB-75) was 432 nM (active). For the same molecule, the GI50 (A549) was 912 nM (active), the GI50 (SK-MEL-5) was 151 nM (active) and the GI50 (EKVX) was 2250 nM (inactive). For the same molecule, the GI50 (CAKI-1) was 1460 nM (inactive) and the GI50 (UO-31) was 557 nM (active).
For `COc1ccc(C2Oc3cc(OC)c(OC)cc3C2CCl)cc1OC` (stereo not given), the GI50 (K562) was > 100000 nM (inactive), the GI50 (DMS-114) was > 100000 nM (inactive) and the GI50 (DMS-273) was > 100000 nM (inactive). For the same molecule, the GI50 (NCI-H226) was > 100000 nM (inactive), the GI50 (SR) was > 100000 nM (inactive) and the GI50 (LXFL 529) was > 100000 nM (inactive). The GI50 (HCC 2998) was > 100000 nM (inactive), the GI50 (NCI-H522) was > 100000 nM (inactive) and the GI50 (UACC-62) was 25600 nM (inactive). The GI50 (U-251) was > 100000 nM (inactive), the GI50 (HCT-116) was > 100000 nM (inactive) and the GI50 (OVCAR-8) was > 100000 nM (inactive). The GI50 (DLD-1) was 67500 nM (inactive), the GI50 (SN12C) was > 100000 nM (inactive) and the GI50 (TK-10) was > 100000 nM (inactive). For the same molecule, the GI50 (HOP-62) was > 100000 nM (inactive), the GI50 (KM12) was > 100000 nM (inactive) and the GI50 (SNB-19) was > 100000 nM (inactive). For the same molecule, the GI50 (CCRF-CEM) was > 100000 nM (inactive), the GI50 (RPMI-8226) was > 100000 nM (inactive) and the GI50 (OVCAR-5) was > 100000 nM (inactive). The GI50 (KM-20L2) was > 100000 nM (inactive), the GI50 (HCT-15) was over 100000 nM and the GI50 (HOP-92) was 74300 nM (inactive). The GI50 (SK-MEL-28) was > 100000 nM (inactive), the GI50 (SW-620) was > 100000 nM (inactive) and the GI50 (NCI-H460) was > 100000 nM (inactive). For the same molecule, the GI50 (M19-MEL) was > 100000 nM (inactive), the GI50 (UACC-257) was > 100000 nM (inactive) and the GI50 (M14) was > 100000 nM (inactive). For the same molecule, the GI50 (SF-268) was > 100000 nM (inactive), the GI50 (MOLT-4) was > 100000 nM (inactive) and the GI50 (ACHN) was > 100000 nM (inactive). For the same molecule, the GI50 (OVCAR-3) was > 100000 nM (inactive), the GI50 (COLO 205) was > 100000 nM (inactive) and the GI50 (LOX IMVI) was > 100000 nM (inactive). The GI50 (SF-539) was > 100000 nM (inactive), the GI50 (SK-MEL-2) was > 100000 nM (inactive) and the GI50 (786-0) was 56800 nM (inactive). For the same molecule, the GI50 (A498) was 73500 nM (inactive), the GI50 (XF498) was > 100000 nM (inactive) and the GI50 (Malme-3M) was > 100000 nM (inactive). For the same molecule, the GI50 (HL-60) was > 100000 nM (inactive), the GI50 (NCI-H23) was > 10000 nM (inactive) and the GI50 (OVCAR-4) was 41400 nM (inactive). The GI50 (SNB-75) was 44800 nM (inactive), the GI50 (A549) was > 100000 nM (inactive) and the GI50 (SK-MEL-5) was 34100 nM (inactive). For the same molecule, the GI50 (EKVX) was > 100000 nM (inactive), the GI50 (CAKI-1) was > 100000 nM (inactive) and the GI50 (UO-31) was > 100000 nM (inactive).

Source: ChEMBL document CHEMBL1201862, “PubChem BioAssay data set” (2004)
